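Five concentrations, 48 hours, 96-well plates. GI50: concentration for 50% inhibition of growth. At the TGI there is no net growth.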 *1 amine or outer side, *2 acyl side, *3 side chain or, on linkers, in order; H or OH if unused. Where a SMILES comes first, the peptide text is derived from it. Bridges are numbered along the chain shown (N, C = ends). Roman numbers before positions name the chains, in order. [ ]: non-standard residue; d: D form. Actinocin(9to1) = Cc1c2oc3c(C)ccc(C(=O)[*:1])c3nc-2c(C(=O)[*:2])c(N)c1=O; NMeV = CN[CH](C(=O)O)C(C)C; Sar = CNCC(=O)O
Experiments:
Test in all cases: NCI tumour cell line growth inhibition, 48 h
[1] = system: SNB-78 CNS
[2] = system: 786-0 renal
[3] = system: A549 NSCLC
[4] = system: DMS 114 small cell lung
[5] = system: IGROV1 ovarian
[6] = system: LXFL 529 NSCLC
[7] = system: KM20L2 colon
[8] = system: HOP-18 NSCLC
[9] = system: SF-539 CNS
[10] = system: M19-MEL melanoma
[11] = system: DMS 273 small cell lung
[12] = system: CAKI-1 renal
[13] = system: DU-145 prostate

SMILES | TGI [1] [µM] | TGI [2] [µM] | TGI [3] [µM] | TGI [4] [µM] | TGI [5] [µM] | TGI [6] [µM] | TGI [7] [µM] | TGI [8] [µM] | TGI [9] [µM] | TGI [10] [µM] | TGI [11] [µM] | TGI [12] [µM] | TGI [13] [µM] | GI50 [4] [µM] | GI50 [7] [µM] | GI50 [13] [nM]
COc1cc(-c2cccs2)sc1-c1cccs1 | > 100 | > 100 | > 100 | 94.3 | > 100 | > 100 | 85.1 | 17.2 | > 100 | > 100 | > 100 | – | – | – | – | –
COCCOCOC(CCCCO)c1cc(C)c(O[Si](C)(C)C(C)(C)C)c(C)c1 (configuration not stated) | – | 24.4 | 16.1 | 10.2 | 26.7 | 22.6 | 17.9 | 30.8 | 26 | 18 | – | – | – | – | – | –
CCCC/C=C/C=C/C=C/CCCCCCCC(=O)OCC(COC(=O)CCCCCCC/C=C/C1C=CC(CCCC)C(C(=O)O)C1C(=O)O)OC(=O)CCCCCCC/C=C/C=C/C=C/CCCC (configuration not stated) (tested in a mixture with another compound) | – | 31.7 | 37.1 | 23.1 | 37.8 | 32.8 | 48.1 | 47.8 | 39.1 | 36.9 | 29.9 | 76.1 | – | – | – | –
COc1ccc(C2c3cc4c(cc3OC3(OC)COC(=O)C23)OCO4)c(OC)c1 (configuration not stated) | – | > 61.3 | > 100 | – | > 100 | – | – | – | 21.5 | – | – | > 100 | > 100 | – | – | –
O=C(Nc1c(O)[nH]c(=S)[nH]c1=O)c1ccccc1 | > 100 | > 100 | > 100 | > 100 | > 100 | > 100 | > 100 | > 100 | > 100 | > 100 | – | > 100 | – | – | – | –
O=c1cc(-c2ccc3c(c2)OCO3)[nH]c2cc3c(cc12)OCO3 | > 100 | > 100 | > 100 | 96.1 | > 100 | > 100 | 74.5 | > 100 | 69.1 | 78.2 | > 100 | > 100 | – | 24 | 26.6 | –
N#Cc1cccc(-n2[nH]c(=O)ccc2=O)c1 | – | > 100 | > 100 | > 100 | > 100 | > 100 | > 100 | – | > 100 | > 100 | > 100 | > 100 | – | – | – | –
CC(C)C(NC(=O)Oc1ccccc1)C(=O)NC1c2c(Br)sc(Br)c2C(=O)C1O (configuration not stated) | – | > 25 | > 25 | – | 8.11 | – | – | – | > 25 | – | – | 14.1 | > 25 | – | – | –
CC(C)=C[C@H]1C[C@H](C)[C@H]2CC[C@H](C)c3c2c1c(C)c1ncoc31 | – | 36.1 | 32.3 | – | 27 | – | – | – | 32.5 | – | – | 35.5 | 33.9 | – | – | –
Cc1c2oc3c(C)ccc(C(=O)NC4C(=O)NC(C(C)C)C(=O)N5CCCC5C(=O)N(C)CC(=O)N(C)C(C(C)C)C(=O)OC4C)c3nc-2c(C(=O)NC2C(=O)NC(C(C)C)C(=O)N3CCCC3C(=O)N(C)CC(=O)N(C)C(C(C)C)C(=O)OC2C)c(N)c1=O (configuration not stated) (I: TVP[Sar][NMeV] / II: TVP[Sar][NMeV]; ester I:1-I:C, II:1-II:C; linker I:N-II:N via Actinocin(9to1); configuration not given here) | – | > 1 | > 0.867 | – | > 0.396 | – | – | – | 0.00299 | – | – | > 0.316 | > 1 | – | – | 1.29
CC(=O)OCCOCNC(=S)N/N=C/c1ccc([N+](=O)[O-])o1 | > 100 | > 100 | > 100 | 43.1 | > 100 | > 100 | > 100 | > 100 | > 100 | 31 | > 100 | – | – | – | – | –
O=C1/C(=C\c2ccc(Cl)cc2Cl)Sc2scc(-c3ccc(O)c(O)c3)[n+]21 | – | 31.6 | 44.1 | – | 50.7 | – | – | – | 45.2 | – | – | 43.4 | 41.9 | – | – | –
COc1cc(C2C(Cl)C(=O)N2n2cnc3ccccc3c2=O)ccc1O (configuration not stated) | > 100 | > 100 | > 100 | > 100 | > 100 | > 100 | > 100 | > 100 | – | > 100 | > 100 | > 100 | – | – | – | –
C=C1C(=O)O[C@@H]2/C=C(C)/C=C\[C@@H]3O[C@@]3(C)C[C@@H](O)C12 (some centres not stated) | – | 21.1 | > 100 | – | 28.6 | – | – | – | 26 | – | – | 21 | 14.5 | – | – | –
CC1=C/C(=N\NC(N)=S)C(C(O)(C(F)(F)F)C(F)(F)F)C(C)(C)C1 (configuration not stated) | – | > 10 | > 10 | – | > 10 | – | – | – | > 10 | – | – | > 10 | > 10 | – | – | –
CCOC(=O)c1ccc(-c2cc(C)no2)[nH]1 | – | > 100 | > 100 | – | > 100 | – | – | – | > 100 | – | – | 71.5 | > 100 | – | – | –
COCOC1/C=C/CCCCC(=O)C(C)C#CC1 (configuration not stated) | – | 5.44 | 30.1 | – | 18.1 | – | – | – | 11.7 | – | – | 13.7 | 25.4 | – | – | –

SMILES | TGI [1] [µM] | TGI [2] [µM] | TGI [3] [µM] | TGI [4] [µM] | TGI [5] [µM] | TGI [6] [µM] | TGI [7] [µM] | TGI [8] [µM] | TGI [9] [µM] | TGI [10] [µM] | TGI [11] [µM] | TGI [12] [µM] | TGI [13] [µM] | GI50 [4] [µM] | GI50 [7] [µM] | GI50 [13] [nM]
CCn1cnc2c(=S)nc(N)[nH]c21 | > 100 | > 100 | > 100 | > 100 | > 100 | > 100 | > 100 | – | > 100 | > 100 | > 100 | – | – | – | – | –
CCOC(=O)/C(=C/c1ccc(OC)cc1)N(CC)CC | > 100 | > 100 | > 100 | > 100 | > 100 | > 100 | > 100 | – | > 100 | > 100 | > 100 | > 100 | – | – | – | –
O=C1C(Br)=C(Br)C(=O)c2ccc(=O)ccc21 | > 100 | 32.7 | > 100 | 39.2 | > 66.1 | 31.7 | > 100 | 57 | 45 | 32.5 | > 100 | 64.2 | > 100 | – | – | –
C(=C/CCCN1O[C@@H](CCCCCCCCc2cccnc2)[C@H]2CCC[C@H]21)/CCCCCCCCCc1cccnc1 | – | 37 | 47.2 | – | 79.4 | – | – | – | 34.9 | – | – | 33.1 | > 100 | – | – | –
O=C1c2cccc3cc([N+](=O)[O-])cc(c23)C(=O)N1Nc1ccc([N+](=O)[O-])cc1[N+](=O)[O-] | – | 35.7 | > 31.6 | – | 25.5 | – | – | – | > 31.6 | – | – | > 31.6 | > 46.4 | – | – | –
COc1ccc(C2Oc3cc(OC)c(OC)cc3C2CCl)cc1OC (configuration not stated) | – | > 100 | > 100 | > 100 | – | > 100 | > 100 | – | > 100 | > 100 | > 100 | > 100 | – | – | – | –
O=C1SC(SCc2ccccc2)=NC12CC2c1ccccc1 (configuration not stated) | – | 39.2 | 81.8 | – | 52.6 | – | – | – | 37.7 | – | – | 40.5 | > 81 | – | – | –
CCNC(=O)c1ccc(C)c(N=NN(C)C)c1 | > 100 | > 100 | > 100 | – | > 100 | > 100 | > 100 | – | > 100 | > 100 | > 100 | > 100 | – | – | – | –
COc1ccc(S(=O)(=O)n2c3c(c4ccccc42)[C@@H]2[C@@H](CCCN2C(=O)CS(=O)c2ccc(C)cc2)[C@H](Cl)C3)cc1 (some centres not stated) | – | > 100 | > 100 | – | > 100 | – | – | – | > 100 | – | – | > 100 | > 100 | – | – | –
CC(C)(CN1CCCCC1)C(/C=C/c1ccc(Cl)cc1)=N\NC(=O)N/N=C(/C=C/c1ccc(Cl)cc1)C(C)(C)CN1CCCCC1 | – | 11.1 | > 57 | – | 13.4 | – | – | – | 18.9 | – | – | 7.3 | 18 | – | – | –
Cc1[nH]c(=O)nc2sc(=NC3CCCCC3)n(C3CCCCC3)c(=O)c12 | – | > 100 | > 100 | – | > 100 | – | – | – | > 100 | – | – | > 100 | > 100 | – | – | –
CCOC(=O)c1nnn(CCCCO)c1C(=O)OCC | – | > 100 | > 100 | – | > 100 | – | – | – | > 100 | – | – | > 100 | > 100 | – | – | –
COc1ccc(C(C)NNC(=O)c2ccncc2)cc1OC (configuration not stated) | – | > 100 | > 100 | – | > 100 | – | – | – | > 100 | – | – | > 100 | > 100 | – | – | –
COc1ccc(C(SCCO)(c2ccccc2)c2ccc(OC)cc2)cc1 | – | 29.1 | 27.3 | – | 46.2 | – | – | – | 31.2 | – | – | 40.6 | 30.6 | – | – | –
O=C(C(=O)n1ccc2ccccc21)n1ccc2ccccc21 | – | > 100 | > 100 | – | 53.1 | – | – | – | > 100 | – | – | > 100 | > 100 | – | – | –
COC(=O)c1cccc(C)c1C1CN=NC12Cc1cc(C)cc(C)c1C2=O (configuration not stated) | – | > 100 | > 100 | – | > 100 | – | – | – | > 100 | – | – | > 100 | > 100 | – | – | –
